Measurements reported in US11680086B2, “Lipopeptide for potently inhibiting HIV, derivative thereof, pharmaceutical composition thereof and use thereof” (Institute of Pathogen Biology, Chinese Academy of Medical …, priority 2017, dated 2023).
Peptide text beside a SMILES is read from it. * marks the point of attachment. Palmitoyl = CCCCCCCCCCCCCCCC(=O)*

How the values were obtained:
HIV-1 = conditions: cell fusion, entry and replication; compared with parent or control peptide
From the text: HIV-1 pseudovirus-mediated cell entry inhibition assay: basic steps included: (1) Preparation of HIV-1 pseudovirus: the 293T cells were co-transfected with a plasmid expressing the envelope protein (Env) of HIV-1 strain NL4-3 (i.e., a recombinant expression plasmid obtained by inserting the gene encoding the envelope protein (ENV) of the D36G mutant of the HIV-1 strain NL4-3 in the Table 2 of the Reference 14 listed in the Background Art into the vector pcDNA3.1(−)) and the HIV-1 backbone plasmid pSG3Δenv (provided by the AIDS Reagent Program of National Institutes of Health (NIH), catalog number: 11051) by using a cell transfection reagent, incubated in a cell incubator of 37° C. and 5% CO2 for 6 hours, and then the medium was changed, and the cells were further incubated for 48 hours. The cell culture supernatant containing pseudovirus particles was pipetted and filtered with a 0.45 μm filter to collect the supernatant, then 20% fetal bovine serum (FBS) was added thereto, the final solution was transferred to a polypropylene tube, and stored at −80° C. for ready for use or directly subjected to virus titration. (2) Titration of HIV-1 pseudovirus: the viruses were diluted by 5 folds in a 96-well plate, and 4 replicate wells with 8 gradients were set to a final volume of 100 microliters. The TZM-b1 cells were trypsinized and counted, and the cells were diluted to 1×10^5 cells/ml with DMEM complete medium; 100 μl of cells dilution (containing 15 μg/ml DEAE-dextran) per well were added and cultured at 37° C. and 5% CO2 for 48 hours. The 96-well plate was then taken from the cell culture incubator. The supernatant was discarded from the wells. To each well, 30 μl of a cell lysate was added, and after 10 minutes, 100 μl of a luciferase detection reagent was added. 100 μl of liquid was pipetted from each well and added to a corresponding 96-well white plate, and the luminescence values were read by a microplate photometer. The virus titer was calculated by the Reed-Muench method. […]

[1] = tested on: HIV-2 strain ROD (infectious); test: inhibition of HIV-2; assay type: cell-based; conditions: HIV-2 ROD
[2] = tested on: SIV pseudoviruses SIVpbj and SIV239; test: inhibition of SIV pseudoviruses; assay type: cell-based
[3] = tested on: HIV-1 strain NL4-3 (NL4-3D36G); test: antiviral activity in serum of macaque after subcutaneous injection; assay type: in vivo, macaques (rhesus monkeys); conditions: 3 mg/kg subcutaneous
Procedure: The specific method was as follows: 6 experimental macaques (rhesus monkeys) were selected, half male and half female, aged 3-4 years old, weighing 3.4-4.7 kg. […] The serum was separated according to a conventional method. The injection interval of each inhibitor was more than 2 weeks to ensure that there was no residue of the previous analyte. The serum activity against the HIV-1 strain NL4-3 (NL4-3D36G) was measured according to the experimental method of the pseudovirus-based assay in the above examples. The serum was diluted by 3 folds. […] Therefore, the lipopeptides of the present invention were not only potent but also were long-lasting effective.

[4] = target: N39 (NHR-derived polypeptide of gp41) (Human immunodeficiency virus type 1 group M subtype B, UniProt P04578); assay type: binding, HIV-1; conditions: 10 μM each, PBS pH 7.2
[5] = circular dichroism secondary structure analysis of the inhibitors themselves; assay type: physicochemical; conditions: 10 μM, 20 μM and 40 μM in PBS

N39 (NHR-derived polypeptide of gp41), sequence (P04578 528-566): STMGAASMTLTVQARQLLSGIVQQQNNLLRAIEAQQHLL

SMILES: CCCCCCCCCCCCCCCC(=O)NCCCC[C@H](NC(=O)[C@H](CCC(=O)O)NC(=O)[C@H](CC(C)C)NC(=O)[C@H](CCCCN)NC(=O)[C@H](CCCCN)NC(=O)[C@H](CC(C)C)NC(=O)[C@H](CCC(=O)O)NC(=O)[C@H](CCC(=O)O)NC(=O)[C@H](CCC(=O)O)NC(=O)[C@H](CC(N)=O)NC(=O)[C@H](CCCCN)NC(=O)[C@H](CCCCN)NC(=O)[C@H](CCC(N)=O)NC(=O)[C@H](CCC(N)=O)NC(=O)[C@H](CCC(=O)O)NC(=O)[C@H](CCC(=O)O)NC(=O)[C@H](C)NC(=O)[C@H](CCCCN)NC(=O)[C@H](CCCCN)NC(=O)[C@H](CC(C)C)NC(=O)[C@H](CC(C)C)NC(=O)[C@H](CCC(=O)O)NC(=O)[C@H](CCC(=O)O)NC(=O)[C@@H](NC(=O)[C@H](CC(N)=O)NC(=O)[C@H](C)NC(=O)[C@H](CCC(=O)O)NC(=O)[C@H](CC(C)C)NC(C)=O)[C@@H](C)CC)C(N)=O [LP-51] (Ac-LEANIEELLKKAEEQQKKNEEELKKLEK(Palmitoyl)-NH2)
- antiviral activity (in words) (HIV-1): comparable to that of the LP-50
- inhibitory activity against HIV-2 (in words) [1]: extremely potent inhibitory activity
- inhibitory activity against SIV (in words) [2]: extremely potent inhibitory activity
- maximum serum dilution multiple for inhibiting 50% of NL4-3 infectivity ([3]; 4 hour after injection): 700482 folds
- maximum serum dilution multiple for inhibiting 50% of NL4-3 infectivity ([3]; 6 hour after injection): 584381 folds
- maximum serum dilution multiple for inhibiting 50% of NL4-3 infectivity ([3]; 72 hours (3 days) after injection): 1122 folds
- Tm value of the complex with N39 [4]: 72 °C
- secondary structure of the inhibitor itself (in words) [5]: distinct helical structure
